Laboratory results from patent US20140378513A1, “USE OF FUNGICIDES IN LIQUID SYSTEMS” (priority 2011, published 2014).

Experiments:
[1] = tested on: Pest in infected Scenedesmus dimorphus culture; experiment: Fungicide efficacy on pest control in infected microalgae culture; type: cell-based; details: for Rating: rating scale of 0 to 3 by percent efficacy
Source text: Failure to treat an infected culture results in the collapse and loss of the microalgae culture. […] Test fungicides are graded on a rating scale of 0 to 3 where a score of 0 represents an efficacy of between 0 and 25%, a score of 1 represents an efficacy of between 26 and 50%, a score of 2 represents an efficacy of between 51 and 75% and a score of 3 represents an efficacy of between 76 and 100%.

pest FD100 = experiment: 200,000 liter outdoor desmid pond P08, qPCR monitoring and treatment; parameters: species or system chytrid FD100
Protocol: A 200,000 liter outdoor pond located in Las Cruces, N. Mex. is inoculated with a desmid strain at an initial OD (750 nm) of ˜0.15 (pond P08). Growth of the microalgae is monitored daily by measuring the ash free dry weight of the culture. PCR monitoring is performed daily to detect the presence of pests.
Initially, the Ct value for the pest is above the threshold of Ct=30 until day 15 (See, FIG. 14). The measured Ct observed for pest FD100 monitoring stays below Ct=30 and indicates a need for crop protective action. On day 18 post-inoculation, fluazinam is added at a concentration of 0.5 ppm. Daily monitoring is continued and the Ct observed for pest FD100 increases above the Ct=30 threshold and remains above the threshold through day 38.
Successful culture depends on the timely identification of a pest. On day 30, in response to a decrease in optical density of the culture, 1 ppm of pyraclostrobin is added.

[2] = tested on: desmid strain (UTEX 1237); experiment: Growth of uncontaminated laboratory microalgae culture with fungicide (OD 750 nm); type: cell-based; details: UTEX 1237, 32° C., OD 750 nm daily
Protocol: (§1) A desmid strain (UTEX 1237) is inoculated into 1 ml of media at an initial A750 of 0.15. […] These cultures are monitored daily for growth by measuring the optical density of the culture at 750 nm. If pests are detected, their genomic DNA is quantitated at the beginning and end of the experiment using the methods presented above. […]
as §1, with “into 1.0” for “into 1”, “media IABR6” for “media”, “initial OD (A750)” for “initial A750”
as §1, with “OD (750 nm)” for “A750”, “in these cultures” for “detected,”, “experiment.” for “experiment using the methods presented above.”

[3] = tested on: chytrids known to infect the strain (desmid UTEX 1237); experiment: Growth of chytrid-inoculated microalgae culture with fungicide (OD 750 nm); type: cell-based
Protocol: Microalgae cultures are prepared as described above and further inoculated with chytrids known to infect the strain, grown, and monitored as described above. […] In contrast, contaminated cultures grown in the presence of 250 ppb or higher concentrations of fluazinam are not affected by the presence of added chytrid. Fluazinam at a concentration of 100 ppb results in a stabilization of microalgae density at 0.8 ODU which is about 4 times the density of microalgae grown in the absence of fluazinam.
(§2) Microalgae cultures are prepared as described above and further inoculated with chytrids known to infect the strain, grown and monitored as described above. […] In contrast, contaminated cultures grown in the presence of 1 ppm or higher concentrations of Headline® are not affected by the presence of added chytrid contaminant. Headline® at a concentration of 0.5 ppm results in a stabilization of microalgae density at about 0.3 ODU which is about 2 times the density of microalgae grown in the absence of Headline®.
as §2, with “2” for “1”, “Thiram®” for “Headline®”, “1.0” for “0.5”, “0.8” for “0.3”, “4” for “2”, “Thiram®.” for “Headline®.”

microalgae = experiment: Ranges of microalgae toxicity (serial dilution of fungicide in growing culture); details: range in which fungicide begins to show growth effects on microalgae
Source text: The present disclosure provides for the introduction of fungicides at an effective concentration. Effective concentrations may be determined according to manufacturer's instructions or may be determined empirically. An effective concentration of a fungicide is not toxic to the microalgae being cultured in the liquid system. Methods to determine toxicity are known in the art and include serial dilutions of a test fungicide in a growing liquid culture of microalgae. One of skill in the art would understand that different microalgae may have different ranges of toxicity that may be determined by growth of a microalga in the presence of a serial dilution of a fungicide.
Algae are screened for sensitivity to chemicals by preparing 180 ml of a log phase culture. The log phase culture is transferred into a 96 well microtiter plate at an absorbance at 750 nm (OD750 or A750) of ˜0.2. Twenty microliters of media is provided into the top row as a negative control, the middle six rows receive a 20 microliter dilution, which is a 10 fold dilution of the chemical at each transfer, of the chemical across an appropriate concentration gradient, and the bottom row receives 20 microliter of the solvent used to solubilize the pesticide alone as a control. The total volume per well is 200 μl. Each chemical is tested in triplicate. The growth of the algae is tracked daily by measuring the A750. After 8 days, the growth rate of the algae is measured by fitting the growth curve to a log model and deriving the maximum growth rate (r). The impact of the chemical is calculated by comparing the r of the algae at various dilutions of the pesticide to the control.

chytrid pest = experiment: Outdoor ponds P16 and PA6 with or without fluazinam treatment
Protocol: Monitoring for chytrid pest and microalgae growth is performed as described in the examples above. In Pond 16 (P16), a signal for the presence of a chytrid pest is detected beginning on Day 8 using the universal primer pair to the methyltransferase gene (SEQ ID NOs: 30 and 31) and to the ITS gene (SEQ ID NOs: 32 and 33). At this point, 400 liters of P16 are inoculated into Pond A6 (PA6). Continuous detection of the presence of chytrid in pond P16 and A6, indicates a need for crop protection and 0.5 ppm of fluazinam is added on Day 11 to P16 but not PA6. Monitoring of the growth of microalgae is continued in both Pond 16 and Pond A6 using total organic carbon (TOC), OD(750), fluorescence, and a FlowCAM®.

Desmid species = experiment: Algae sensitivity screen, 96 well, growth rate by A750 over 8 days; type: cell-based
Protocol: (§3) The total volume per well is 200 μl. Each chemical is tested in triplicate.

Scenedesmus dimorphus = experiment: as above; type: cell-based
Protocol: as §3

Scenedesmus species = experiment: as above; type: cell-based; details: 8 days
Protocol: as §3

[4] = Tetradesmus dimorphus, read-out: Scenedesmus dimorphus efficacy
[5] = fluazinam 100 ppb, contaminated culture
[6] = log phase culture, 10 fold dilutions

Row | Compound | Rating [1] | Ranges of Microalgae toxicity (microalgae) | Desmid species toxicity (Desmid species; [6]) | Scenedesmus dimorphus toxicity (Scenedesmus dimorphus; [6]) | Scenedesmus species toxicity (Scenedesmus species; [6]) | further results
1 | O=[N+]([O-])c1cc(C(F)(F)F)c(Cl)c([N+](=O)[O-])c1Nc1ncc(C(F)(F)F)cc1Cl [fluazinam, 3-chloro-N-[3-chloro-2,6-dinitro-4-(trifluoromethyl)phenyl]-5-(trifluoromethyl)-2-pyridinamine] | 2 (a score of 2 represents an efficacy of between 51 and 75%) | >7.5 ppm |  |  |  | activity at 0.8 ppm [1, 4]: 67%; Ct observed for pest FD100 after treatment (pest FD100; 0.5 ppm added day 18 post-inoculation, through day 38): > 30; concentrations that do not significantly affect the growth of the uncontaminated microalgae culture [2]: up to 2 ppm; concentration at which contaminated cultures are not affected by the presence of added chytrid ([3]; UTEX 1237 inoculated with chytrids): ≥ 250 ppb; density relative to microalgae grown in the absence of fungicide [3, 5]: about 4 times; stabilization of microalgae density [3, 5]: 0.8 ODU; growth of microalgae in treated pond (chytrid pest; 0.5 ppm added on Day 11 to P16, untreated PA6 collapses): Logarithmic growth continues; fraction of infected cells after treatment (chytrid pest; 0.5 ppm, pond P16, increases in untreated PA6): stabilizes or decreases
2 | CON=C(Cc1cccnc1)c1ccc(Cl)cc1Cl [pyrifenox] | 0 (a score of 0 represents an efficacy of between 0 and 25%) | 0.004-0.156 ppm | 0.004-0.0156 ppm | 0.039-0.156 ppm | 0.039-0.156 ppm | Scenedesmus dimorphus efficacy ([1]; first trial, result as symbol): (+/−)
3 | CC1=C(C(=O)Nc2ccccc2)SCCO1 [carboxine, 6-methyl-N-phenyl-2,3-dihydro-1,4-oxathiine-5-carboxamide] | 0 (a score of 0 represents an efficacy of between 0 and 25%) | 0.977-3.906 ppm | 0.977-3.906 ppm | 0-0.244 ppm | 0.244-0.977 ppm | positive efficacy in a first trial confirmed in a second trial ([1]; Table 6): not confirmed; activity at 5 ppm [1, 4]: 24.6%
4 | COC(=O)N(OC)c1ccccc1COc1ccn(-c2ccc(Cl)cc2)n1 [pyraclostrobin, methyl N-[2-[[[1-(4-chlorophenyl)-1H-pyrazol-3-yl]oxy]methyl]phenyl]-N-methoxycarbamate] | 2 (a score of 2 represents an efficacy of between 51 and 75%) | >15 ppm |  |  |  | activity at 2 ppm [1, 4]: 66%; culture outcome after second fungicide (pest FD100; 1 ppm added on day 30 after decrease in optical density): the culture collapses
5 | Cc1ccc(-c2c(Cl)nc(C#N)n2S(=O)(=O)N(C)C)cc1 [cyazofamid] | 0 (a score of 0 represents an efficacy of between 0 and 25%) | 0.03125-0.125 ppm |  |  |  | Desmid species toxicity (Desmid species; Desmid species): 0.125-0.500 ppm; Scenedesmus dimorphus toxicity (Scenedesmus dimorphus; Scenedesmus dimorphus): 0.03125-0.125 ppm; Scenedesmus species toxicity (Scenedesmus species; Scenedesmus species): 0.03125-0.125 ppm
6 | CCCOC(=O)NCCCN(C)C [propamocarb] | 0 (a score of 0 represents an efficacy of between 0 and 25%) | 3.906-62.5 ppm | 3.906-15.625 ppm | 15.63-62.5 ppm | 3.906-15.63 ppm | 
7 | O=C1C2CC=CCC2C(=O)N1SC(Cl)(Cl)Cl (stereo not drawn) [captan] | 0 (a score of 0 represents an efficacy of between 0 and 25%) | 1.953-125 ppm | 31.25-125 ppm | 1.953-7.813 ppm | 31.25-125 ppm | 
